Experimental data published in patent publication US20210292315A1, “SELENIUM-CONTAINING ISOXAZOLAMINE COMPOUND, PREPARATION METHOD THEREFOR, AND USE THEREOF” (SHANGHAI XINGYE PHARMACEUTICAL TECHNOLOGY CO., LTD, priority 2018, published 2021).
Where two headings read alike, the source gives them in different places.

Key:
[1] = system: TNF-α; test: TNF-α activity inhibiting assay: LPS-stimulated peripheral blood, TNF-α by ELISA; format: cell-based, human; details: LPS 10 ng/mL, 6 hours, diluted peripheral blood from healthy volunteers, read-out: TNF-α inhibition (%)
Procedure: Methods: Peripheral blood from healthy volunteers was collected with EDTA anticoagulant tubes. After being diluted 5-fold with 1640 medium (Gibco, USA), the blood was added to 96-well cell culture plates (Costar, USA) and then treated with 10 μL solution of the compound of general formula (I) of the present invention in DMSO (Sigma, USA), and the final concentration of DMSO was 0.2%. After incubation for 60 minutes in an incubator at 37° C. under 5% CO2, 10 μL LPS (Sigma, USA) was added to the reaction system, and the final concentration was 10 ng/mL. After further culturing for 6 hours in the incubator at 37° C. under 5% CO2, the supernatant was collected. The content of TNF-α was determined by ELISA (BD Biosciences, USA). Absorbance was detected at OD450 nm with a microplate reader, with GD 650 nm as reference. The control, a solution containing 0.2% DMSO medium, was as 0% inhibition. Raw data and standard curves were recorded. The four-parameter drug inhibition curve was plotted by XL-fit software and the inhibition rate of each compound was calculated.

[2] = target: T1, Thioredoxin Reductase 1 (TrxR1) (Homo sapiens, UniProt Q16881); test: Thioredoxin reductase 1 (TrxR1) activity inhibiting assay, NADPH consumption at 340 nm; format: biochemical; details: insulin/Trx/NADPH system, absorbance 340 nm; read-out: TrxR inhibition IC50
T1 sequence (Q16881 151-649 limits assumed): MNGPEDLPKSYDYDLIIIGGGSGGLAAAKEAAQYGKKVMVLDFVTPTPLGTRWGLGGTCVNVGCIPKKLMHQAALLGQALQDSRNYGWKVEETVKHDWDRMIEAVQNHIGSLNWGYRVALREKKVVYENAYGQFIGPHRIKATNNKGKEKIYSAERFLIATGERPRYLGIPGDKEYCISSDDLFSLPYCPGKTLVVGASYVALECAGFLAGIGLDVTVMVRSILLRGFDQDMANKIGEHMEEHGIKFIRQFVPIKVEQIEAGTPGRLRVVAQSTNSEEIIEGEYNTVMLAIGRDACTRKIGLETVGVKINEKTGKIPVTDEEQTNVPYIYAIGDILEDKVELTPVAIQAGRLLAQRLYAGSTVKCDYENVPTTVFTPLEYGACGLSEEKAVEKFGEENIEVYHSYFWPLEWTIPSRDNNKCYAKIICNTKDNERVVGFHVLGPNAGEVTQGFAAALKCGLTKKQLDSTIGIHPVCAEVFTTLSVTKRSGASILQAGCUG
Procedure: Working solutions: 0.119 mg/mL of TrxR working solution preparation: 175 μL of TrxR stock solution (0.34 mg/mL) was diluted to 500 μL; 1 mM NADPH working solution preparation, NADPH (5 mg) was dissolved in 12 mL potassium phosphate buffer; 1 mM DTNB working solution preparation: 25 mg DTNB was dissolve in 63 mL DMSO; potassium phosphate buffer system preparation: 0.2 mg/mL bovine serum albumin (BSA) and 1 mM EDTA were added to potassium phosphate buffer at pH 7.4 (K2HPO4/KH2PO4).
Methods: The TrxR1 inhibitory activity study of selenium-containing isoxazolamines in vitro. Insulin, NADPH, Trx, the samples and TrxR1 were added to a microcuvette in order, and subsequently added the work buffer (0.1 mol/L potassium phosphate/2 mmol/L EDTA) to a total volume of 0.5 mL. The concentration of each component in the obtained reaction system is: insulin 130 μmol/L, NADPH […] (Sigma), Trx 4 μmol/L, the added substrate (the selenium-containing isoxazolamines treated samples). After determination of the initial absorption at 340 nm, the enzymatic reaction was started by adding 20 μg extracted TrxR1 proteins, the decrease in absorbance at 340 nm was monitored. One unit of enzymatic activity is defined as the consumption. The activity can be calculated from the extinction coefficient of NADPH, and the unit of enzyme activity is defined as: 1U=ΔA340 nm/min×1000, the TR activity could be calculated with U/L. The results are shown in table 2.

[3] = Glutathione peroxidase (GPx)-like activity assay, coupled NADPH oxidation at 340 nm; format: biochemical; details: compound 50 μm, GSH 2.0 mM, pH 7.5, 25° C.; for Initial rate v0, Cum-OOH: peroxide Cum-OOH 1.6 mM; for Initial rate v0, H2O2: peroxide H2O2 1.6 mM; for Initial rate v0, tBuOOH: peroxide tBuOOH 1.6 mM
Procedure: Method: GPX activity of selenium compounds was assayed by ultraviolet spectrophotometry. Glutathione (2.0 mM), EDTA (1 mM), glutathione disulfide reductase (1.7 units mL^−1), and nicotinamide adenine dinucleotide phosphate […] (NADPH; 0.4 mM) were mixed intopotassium phosphate buffer (0.1 M, pH=7.5). The selenium compounds (50 μm) was added to the above mixture At room temperature (25° C.), and the reaction was started by the addition of H2O2, tBuOOH or Cum-OOH (1.6 mM) respectively. The initial reduction rates were calculated from the rate of NADPH oxidation at 340 nm in a GSH assay. Each initial rate was measured at least three times and calculated from the first 5-10% of the reaction by using 6.22 mM^−1 cm^−1 as the molar extinction coefficient for NADPH. For the peroxidase activity, the rates were corrected for the background reaction between peroxide and thiol.

Row | Compound | IC50 ([1]; Homo sapiens) [µM] | IC50 [2] [µM] | IC50 [1] [µM] | other results
1 | O=c1c2ccccc2[se]n1-c1nc2ccccc2s1 [Compound 21] | 10 to 100 | 5 to 50 |  | Initial rate v0, Cum-OOH [3]: 94.5 ± 4.2 μm min^−1; Initial rate v0, H2O2 [3]: 115.3 ± 2.6 μm min^−1; Initial rate v0, tBuOOH [3]: 35.7 ± 4.2 μm min^−1
2 | Cc1cccc2c(=O)n(C3CCC(=O)NC3=O)[se]c12 (stereo not shown) [Compound 15] |  |  | < 1 | 
3 | COc1ccc2[se]n(C3CCC(=O)NC3=O)c(=O)c2c1 (stereo not shown) [Compound 12] | 1 to 10 | < 5 |  | Initial rate v0, Cum-OOH [3]: 116.8 ± 7.2 μm min^−1; Initial rate v0, H2O2 [3]: 121.7 ± 2.2 μm min^−1; Initial rate v0, tBuOOH [3]: 54.5 ± 5.7 μm min^−1
4 | O=C1CCC(n2[se]c3c(F)cccc3c2=O)C(=O)N1 (stereo not shown) [Compound 10] | 1 to 10 | < 5 |  | 
5 | Nc1cccc2c1CN(C1CCC(=O)NC1=O)C2=O (stereo not shown) [Lenadomide, reference compound] | < 1 |  |  | 
6 | CC(=O)Nc1cccc2c1[Se](=O)N(C1CCC(=O)NC1=O)C2=O (stereo not shown) [Compound 37] |  |  | 10 to 100 | 
7 | O=C1CC(n2[se]c3c(F)cccc3c2=O)C(=O)N1 (stereo not shown) [Compound 27] |  | 5 to 50 | 1 to 10 | 
8 | COc1ccc2[se]n(C3CC(=O)NC3=O)c(=O)c2c1 (stereo not shown) [Compound 25] | 10 to 100 | 5 to 50 |  | 
9 | O=C1CCC(n2[se]c3cc(Cl)ccc3c2=O)C(=O)N1 (stereo not shown) [Compound 8] | 10 to 100 | 5 to 50 |  | 
10 | COc1cccc2c1[Se](=O)N(C1CCC(=O)NC1=O)C2=O (stereo not shown) [Compound 40] | 1 to 10 | 50 to 100 |  | 
11 | COc1cccc2c1[Se]N(C1CCC(=O)NC1=O)C2 (stereo not shown) [Compound 44] | 1 to 10 |  |  | 
12 | O=C1CCC(n2[se]c3cccc([N+](=O)[O-])c3c2=O)C(=O)N1 (stereo not shown) [Compound 2] | 1 to 10 | 5 to 50 |  | 
13 | O=C1CCC(n2[se]c3c([N+](=O)[O-])cccc3c2=O)C(=O)N1 (stereo not shown) [Compound 5] | 1 to 10 | 50 to 100 |  | 
14 | N#Cc1cccc2c(=O)n(C3CCC(=O)NC3=O)[se]c12 (stereo not shown) [Compound 16] | 1 to 10 | 5 to 50 |  | 
15 | O=C1CC(N2C(=O)c3ccccc3[Se]2=O)C(=O)N1 (stereo not shown) [Compound 41] |  |  | 10 to 100 | 
16 | O=C1c2ccccc2[Se](=O)N1c1nc2ccccc2s1 (stereo not shown) [Compound 33] | > 100 |  |  | 
17 | COc1cccc2c1[Se]N(C13CC4CC(CC(O)(C4)C1)C3)C2 [Compound 50] | 10 to 100 |  |  | 
18 | Nc1cccc2[se]n(C3CCC(=O)NC3=O)c(=O)c12 (stereo not shown) [Compound 3] | < 1 |  |  | 
19 | O=c1c2ccccc2[se]n1-c1ccccc1 [Ebselen, reference compound] |  | 50 to 100 |  | 
20 | Nc1cccc2c(=O)n(C3CCC(=O)NC3=O)[se]c12 (stereo not shown) [Compound 6] |  |  | < 1 | 
21 | O=C1CCC(N2C(=O)c3ccccc3C2=O)C(=O)N1 (stereo not shown) [Thalidomide, reference compound] | > 100 |  |  | 
22 | O=C1CCC(n2[se]c3cc(F)ccc3c2=O)C(=O)N1 (stereo not shown) [Compound 7] | 10 to 100 | < 5 |  | Initial rate v0, Cum-OOH [3]: 142.2 ± 8.2 μm min^−1; Initial rate v0, H2O2 [3]: 128.2 ± 2.0 μm min^−1; Initial rate v0, tBuOOH [3]: 49.3 ± 5.0 μm min^−1

Row | Compound | IC50 ([1]; Homo sapiens) [µM] | IC50 [2] [µM] | IC50 [1] [µM] | other results
23 | CC(=O)Nc1cccc2c(=O)n(C3CCC(=O)NC3=O)[se]c12 (stereo not shown) [Compound 9] | 10 to 100 | 5 to 50 |  | 
24 | CC1(C)S[C@@H]2[C@H](n3[se]c4ccccc4c3=O)C(=O)N2[C@H]1C(=O)O [Compound 17] | > 100 | < 5 |  | 
25 | O=C1c2ccccc2[Se](=O)N1c1nc2ccc(OC(F)(F)F)cc2s1 (stereo not shown) [Compound 34] | 10 to 100 | 50 to 100 |  | Initial rate v0, Cum-OOH [3]: 12.4 ± 0.3 μm min^−1; Initial rate v0, H2O2 [3]: 39.7 ± 1.4 μm min^−1; Initial rate v0, tBuOOH [3]: 14.2 ± 1.1 μm min^−1
26 | O=c1c2ccccc2[se]n1C12CC3CC(CC(O)(C3)C1)C2 [Compound 19] |  |  | 10 to 100 | Initial rate v0, Cum-OOH [3]: 34.2 ± 1.5 μm min^−1; Initial rate v0, H2O2 [3]: 99.7 ± 1.9 μm min^−1; Initial rate v0, tBuOOH [3]: 32.3 ± 3.5 μm min^−1
27 | O=C1c2ccccc2[Se](=O)N1C12CC3CC(CC(O)(C3)C1)C2 (stereo not shown) [Compound 32] | > 100 |  |  | Initial rate v0, Cum-OOH [3]: 11.5 ± 0.2 μm min^−1; Initial rate v0, H2O2 [3]: 36.7 ± 0.8 μm min^−1; Initial rate v0, tBuOOH [3]: 12.0 ± 2.3 μm min^−1
28 | COc1cccc2c(=O)n(-c3nc4ccc(OC(F)(F)F)cc4s3)[se]c12 [Compound 30] | 10 to 100 | < 5 |  | 
29 | O=C1CC(n2[se]c3cc(F)ccc3c2=O)C(=O)N1 (stereo not shown) [Compound 26] |  |  | 10 to 100 | Initial rate v0, Cum-OOH [3]: 164.5 ± 9.1 μm min^−1; Initial rate v0, H2O2 [3]: 145.2 ± 3.4 μm min^−1; Initial rate v0, tBuOOH [3]: 55.7 ± 5.2 μm min^−1
30 | O=c1c2cc(F)ccc2[se]n1C12CC3CC(CC(O)(C3)C1)C2 [Compound 20] |  |  | 10 to 100 | 
31 | O=C1CCC(n2[se]c3ccc(F)cc3c2=O)C(=O)N1 (stereo not shown) [Compound 4] | 10 to 100 | < 5 |  | 
32 | COc1ccc2c(c1)CN(C1CCC(=O)NC1=O)[Se]2 (stereo not shown) [Compound 45] |  | 5 to 50 |  | 
33 | O=C1CC(n2[se]c3ccccc3c2=O)C(=O)N1 (stereo not shown) [Compound 24] |  |  | 10 to 100 | 
34 | Cc1cccc2c(=O)n(C3CC(=O)NC3=O)[se]c12 (stereo not shown) [Compound 28] |  |  | < 1 | 
35 | COc1cccc2c(=O)n(C3CCC(=O)NC3=O)[se]c12 (stereo not shown) [Compound 11] |  |  | 1 to 10 | 
36 | COc1cc2[se]n(C3CCC(=O)NC3=O)c(=O)c2cc1OC (stereo not shown) [Compound 13] | 1 to 10 | < 5 |  | 
37 | Nc1cccc2c1[Se](=O)N(C1CCC(=O)NC1=O)C2=O (stereo not shown) [Compound 35] |  |  | < 1 | 
38 | O=C1CCC(N2C(=O)c3cc(F)ccc3[Se]2=O)C(=O)N1 (stereo not shown) [Compound 36] |  |  | 10 to 100 | 
39 | O=C1CCC(N2C(=O)c3ccc(F)cc3[Se]2=O)C(=O)N1 (stereo not shown) [Compound 39] |  |  | 10 to 100 | 
40 | COc1ccc2nc(-n3[se]c4ccccc4c3=O)sc2c1 [Compound 23] |  | 5 to 50 | 10 to 100 | 
41 | CC1(C)S[C@@H]2[C@H](n3[se]c4ccc(F)cc4c3=O)C(=O)N2[C@H]1C(=O)O [Compound 18] |  |  | > 100 | 
42 | O=c1c2ccccc2[se]n1-c1nc2ccc(OC(F)(F)F)cc2s1 [Compound 22] | 1 to 10 | < 5 |  | 
43 | O=C1CCC(n2[se]c3ccccc3c2=O)C(=O)N1 (stereo not shown) [Compound 1] | 10 to 100 | 5 to 50 |  | Initial rate v0, Cum-OOH [3]: 124.5 ± 7.6 μm min^−1; Initial rate v0, H2O2 [3]: 109.7 ± 2.1 μm min^−1; Initial rate v0, tBuOOH [3]: 42.0 ± 3.3 μm min^−1
44 | COc1cc2c(=O)n(C3CCC(=O)NC3=O)[se]c2c(OC)c1OC (stereo not shown) [Compound 14] |  |  | < 1 | 
